{
  "source": "patent US20190255146A1",
  "about": "“POLYPEPTIDES FOR IMPROVED RESPONSE TO ANTI-CANCER THERAPY” (MUSC FOUNDATION FOR RESEARCH DEVELOPMENT, priority 2016, published 2019)",
  "key": {"Drp1 [1]": {"system": "Drp1", "assay": "Drp1 oligomerization by Western blotting without reducing agents", "type": "cell-based", "settings": "HPV(+) UM-SCC47 cells", "protocol": "FIGS. 7A-F. E2F5/Drp1 complex enhances HPV-E7/ceramide-dependent lethal mitophagy. (A) UM-SCC47 cells were treated with cisplatin or C18-pyr-cer and Western blotting was performed with cell lysates in the absence of reducing agents in the lysing buffer to detect monomeric and dimeric Drp1 protein abundance compared to vehicle-treated controls. Actin was used as a loading control. (B-C) Cell death was assessed by trypan blue exclusion assay in UM-SCC47 cells expressing dominant-negative Drp1 mutant (K38A-DRP1) and treated with C18-pyr-cer (B) or cisplatin (C) compared to vector-transfected controls. […] (D-E) Association between E2F5 and Drp1 in response to ceramide stress (C18-pyr-cer) was measured in UM-SCC-47 cells using PLA (D) or immunoprecipitation followed by Western blotting (E) with anti-Drp1 or anti-E2F5 antibodies. IgG was used as a control. […] PLA signals were quantified as described by the manufacturer using the PLA quantification software. […] Effects of siRNA-mediated HPV-E6/E7 knockdown on pRB, HPV-E7 and p53 protein abundance were also confirmed by Western blotting compared to Scr-siRNA-transfected controls in the absence/presence of C18-pyr-cer (right panel). Total RB was used a loading control (Rb band, upper panel).\nImmunoblotting. Cells were lysed in RIPA buffer plus protease inhibitor cocktail on ice for 15 minutes then centrifuged. […]"}, "CerS1": {"system": "CerS1", "assay": "CerS1 localization, Western blotting of cytoplasm versus mitochondria enriched fractions of UM-SCC-47 cells", "type": "cell-based", "settings": "cisplatin 1 and 4 h versus 0 h", "protocol": "FIGS. 2A-G. HPV-E6 enhances chemotherapy-mediated cellular stress and CerS1/ceramide-mediated lethal mitophagy. (A-B) Effects of siRNA-mediated knockdown of HPV-E6/E7 on HPV(+) UM-SCC-47 cell death was assessed by MTT compared to Scr-siRNA-transfected and/or vehicle-treated controls. Successful knockdown of HPV-E6/E7 proteins were confirmed by Western blot analysis (B). […] (C) Effects of ectopic expression of HPV-E6 versus E7 on HPV(−) UM-SCC-22A cell death were measured by MTT. HPV-E6/E7 protein abundance was measured by Western blotting. […] (D) Effects of shRNA-mediated knockdown of CerS1 on mitophagy in response to cisplatin were measured by live cell imaging confocal micrographs of UM-SCC-47 cells stained with LTG and MTR. Scr-shRNA-transfected and/or vehicle-treated cells were used as controls. […] Images were quantified using ImageJ. (E) Cytoplasmic versus mitochondrial localization of CerS1 in the presence/absence of cisplatin at 0, 1, and 4 h was measured by Western blotting using anti-CerS1 antibody in cytoplasm (cyto)—versus mitochondria (mito)-enriched cellular fractions of UM-SCC-47 cells. Actin and Tom 20 were used as controls for cytoplasm- and mitochondria-enriched fractions, respectively. […] (F-G) Effects of shRNA-mediated knockdown of CerS6, confirmed by Western blotting (F), on UM-SCC-47 cell death in response to cisplatin were measured by trypan blue exclusion assay (G). […]"}, "CerS1-6 mRNA": {"system": "CerS1-6 mRNA", "assay": "CerS1-6 mRNA by qRT-PCR in HPV(+) UM-SCC-47 xenograft-derived tumors", "type": "in vivo, mice", "settings": "day 14 versus day 0", "protocol": "(§1) To determine whether HPV(+) compared to HPV(−) HNSCC cells are more sensitive to stress-mediated growth inhibition in response to chemotherapeutic drugs, it was first established HPV(+) UM-SCC-47- and HPV(−) UM-SCC-22A-derived xenograft tumors in SCID mice. After the xenograft-derived tumors were ˜75-100 mm^3, the mice were treated with cisplatin (3.5 mg/kg) for two weeks, which is below its maximum tolerated doses (van Moorsel et al, 1999). Then, tumor volumes were measured at days 0 and 14 of treatment. […] After tumor growth measurements in the mice were taken, the tumors were surgically removed and the effects of cisplatin on CerS1-6 mRNA were measured by qRT-PCR.\nQuantitative RT-PCR. RNA was extracted from cell pellets using RNeasy kit (Qiagen) per the manufacturer's instructions. cDNA was generated using equal amounts of RNA from each sample and iScript cDNA synthesis kit (Bio-Rad) per manufacturer's instructions. Reactions were carried out using SsoFast probes mix (Bio-Rad) and TaqMan primer probes (ThermoFisher Scientific) in a StepOne Plus qPCR cycler as described by the manufacturer.\n(§2) In vivo studies. […] Age- and sex-matched mice were used. […] Tumor volume was measured using calipers."}, "UM-SCC-22A cells": {"system": "UM-SCC-22A cells", "assay": "Growth inhibition in culture, IC50 determination by MTT assay", "type": "cell-based", "settings": "UM-SCC-22A (HPV−) cells, 48 h; read-out: IC50 (concentration that inhibited growth by 50%)", "protocol": "(§3) IC50 determination by MTT assay. Cells were plated in 96-well plates and allowed to adhere for 20 h, then treated with the indicated concentrations of drug. After 48 h treatment, the MTT assay (ATCC) was performed as described previously (Sentelle et al, 2012)."}, "UM-SCC-47 cells": {"system": "UM-SCC-47 cells", "assay": "Growth inhibition in culture, IC50 determination by MTT assay", "type": "cell-based", "protocol": "as §3"}, "[2]": {"system": "UM-SCC-22A-derived xenograft tumors", "assay": "HPV(−) UM-SCC-22A-derived xenograft tumor growth in SCID mice", "type": "in vivo", "protocol": "as §1\nEight arginine residues (R8) were included on the N-terminus to enhance cell penetration of the E2F5 peptide (Rancher and Ryu, 2015).\nIn vivo studies. Severe combined immunodeficient (SCID) mice were purchased from Jackson Laboratories. Age- and sex-matched mice were used. All animal protocols were approved by the Institutional Animal Care and Use Committee at the Medical University of South Carolina. UM-SCC22A or UM-SCC47 cells (75,000) were implanted into the flanks of SCID mice (n=5-8 mice). When the tumors were palpable, the mice were treated every three days with 3.5 mg/kg cisplatin, 20 mg/kg C18-pyr-cer, or corresponding amount of vehicle control and/or 3.76 μg E2F5-peptide or scrambled control peptide. Tumor volume was measured using calipers. At the end of the 14-day treatment, the mice were euthanized and tumor tissues were collected (Sentelle et al, 2007; Saddoughi et al, 2013)."}, "LC3B": {"system": "LC3B", "assay": "LC3B lipidation by Western blotting in UM-SCC-47 cell extracts", "type": "cell-based", "settings": "UM-SCC-47 cells, versus vehicle", "protocol": "FIGS. 12A-C. Knockdown of autophagy inducer LC3 inhibits cisplatin-mediated cell death in HPV(+) HNSCC cells. (A) Induction of autophagy in response to cisplatin was assessed by detection of LC3B lipidation using Western blotting in HPV(+) UM-SCC-47 cell extracts with anti-LC3B antibody compared to vehicle (veh) treated controls. Actin was used as a loading control. […] Samples shown are from the same representative blot but not in contiguous lanes. (B-C) Effects of siRNA-mediated knockdown of LC3B on cisplatin-mediated cell death were measured and IC50 concentrations were calculated by MTT assays compared to Scr-siRNA-transfected controls. […] Si-RNA-mediated knockdown of LC3B was confirmed using Western blotting with anti-LC3B antibody compared to Scr-siRNA-transfected controls (C). Actin was used as a loading control.\n(§4) Immunoblotting. Cells were lysed in RIPA buffer plus protease inhibitor cocktail on ice for 15 minutes then centrifuged. 30ug of protein from the supernatant were run on Criterion™ TGX™ Precast Gels (Bio-Rad)."}, "[3]": {"system": "UM-SCC-47-derived xenograft tumors", "assay": "HPV(+) UM-SCC-47-derived xenograft tumor growth in SCID mice", "type": "in vivo", "settings": "HPV(+) UM-SCC-47 xenografts, cisplatin 3.5 mg/kg for two weeks, tumor volumes days 0 and 14", "protocol": "as §1, §2"}, "Drp1 [4]": {"biological_target": "T1, Drp1 (Homo sapiens, UniProt O00429)", "T1 construct": "Western blotting using whole cell (UM-SCC-22A) lysates versus mitochondria-enriched fractions; endogenous in cells; host or cells: UM-SCC-22A", "T1 sequence (O00429 whole entry)": "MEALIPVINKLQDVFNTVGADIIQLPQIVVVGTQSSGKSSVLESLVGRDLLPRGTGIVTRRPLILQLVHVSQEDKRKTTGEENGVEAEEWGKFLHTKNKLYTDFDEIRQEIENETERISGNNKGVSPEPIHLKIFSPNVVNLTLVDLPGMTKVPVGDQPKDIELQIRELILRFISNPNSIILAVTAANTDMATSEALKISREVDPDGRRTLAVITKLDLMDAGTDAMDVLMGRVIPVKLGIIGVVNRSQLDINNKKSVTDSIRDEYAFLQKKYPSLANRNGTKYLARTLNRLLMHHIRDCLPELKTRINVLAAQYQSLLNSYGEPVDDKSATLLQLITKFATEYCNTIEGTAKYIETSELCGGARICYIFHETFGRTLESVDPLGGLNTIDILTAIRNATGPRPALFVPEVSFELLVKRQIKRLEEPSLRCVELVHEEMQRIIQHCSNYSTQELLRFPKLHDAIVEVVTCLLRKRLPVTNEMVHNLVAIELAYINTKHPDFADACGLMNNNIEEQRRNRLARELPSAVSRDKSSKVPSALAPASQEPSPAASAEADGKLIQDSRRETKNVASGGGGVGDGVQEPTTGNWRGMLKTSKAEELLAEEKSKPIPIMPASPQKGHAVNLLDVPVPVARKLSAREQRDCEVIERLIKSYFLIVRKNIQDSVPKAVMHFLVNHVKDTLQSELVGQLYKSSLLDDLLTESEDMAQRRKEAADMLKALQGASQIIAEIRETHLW", "assay": "Drp1 recruitment to mitochondria in HPV(−) UM-SCC-22A cells (Western blotting of mitochondria-enriched fractions)", "type": "cell-based", "settings": "5 uM peptide, 20 uM C18-pyr-cer, 1.5 hours", "protocol": "Images were quantified using FIJI.\nas §4\nCell fractionation. Cells were treated with 40 uM cisplatin or vehicle for eight hours, 20 uM C18-pyr-cer or vehicle and/or 5 uM scr-pept or E2F5-pept for 1.5 hours. Mitochondria isolation kit (ThermoFisher Scientific) was used as described by the manufacturer."}, "[5]": {"biological_target": "T2, retinoblastoma protein (RB) (UniProt P06400 2-928, limits assumed)", "T2 construct": "whole, on cells; Endogenous intracellular protein, detected with anti-RB antibody; also called pRB", "T2 sequence (looked up)": "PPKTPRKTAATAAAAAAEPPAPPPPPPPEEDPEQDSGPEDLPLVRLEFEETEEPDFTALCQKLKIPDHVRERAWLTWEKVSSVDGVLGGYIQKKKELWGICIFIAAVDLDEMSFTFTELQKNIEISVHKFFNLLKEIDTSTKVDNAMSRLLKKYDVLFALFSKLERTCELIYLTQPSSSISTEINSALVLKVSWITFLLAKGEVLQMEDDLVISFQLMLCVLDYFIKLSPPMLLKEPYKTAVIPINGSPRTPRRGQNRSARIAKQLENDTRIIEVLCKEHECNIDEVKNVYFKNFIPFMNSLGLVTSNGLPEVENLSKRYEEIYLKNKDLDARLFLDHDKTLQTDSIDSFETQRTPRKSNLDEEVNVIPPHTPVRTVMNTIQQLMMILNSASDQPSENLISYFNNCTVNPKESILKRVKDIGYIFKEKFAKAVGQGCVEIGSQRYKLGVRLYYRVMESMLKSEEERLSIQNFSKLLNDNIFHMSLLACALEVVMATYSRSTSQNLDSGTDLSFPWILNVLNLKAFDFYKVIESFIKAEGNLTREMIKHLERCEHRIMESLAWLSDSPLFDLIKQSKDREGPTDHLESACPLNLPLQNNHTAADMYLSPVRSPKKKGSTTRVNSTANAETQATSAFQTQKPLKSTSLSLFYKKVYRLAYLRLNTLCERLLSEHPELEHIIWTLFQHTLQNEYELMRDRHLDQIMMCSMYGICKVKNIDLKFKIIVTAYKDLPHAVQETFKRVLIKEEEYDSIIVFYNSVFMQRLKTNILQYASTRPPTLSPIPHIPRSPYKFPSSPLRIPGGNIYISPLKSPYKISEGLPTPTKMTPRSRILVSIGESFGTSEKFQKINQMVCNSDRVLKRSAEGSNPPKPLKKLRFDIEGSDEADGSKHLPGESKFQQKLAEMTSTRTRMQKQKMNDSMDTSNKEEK", "assay": "PLA with anti-GFP and anti-RB antibodies, UM-SCC-22A cells", "text": "PLA images were quantified using the PLA software as described by the manufacturer. […] Vector-GFP was used as a control (right panel, C)."}},
  "data": [
    {"molecule": "N.N.[Cl][Pt][Cl]", "note": "[cisplatin]", "values": [
      {"measurement": "Drp1 oligomerization and/or activation", "setting": "Drp1 [1]", "value": "Drp1 oligomerization and/or activation was observed"},
      {"measurement": "accumulation of CerS1 in mitochondria", "setting": "CerS1", "value": "increased accumulation of CerS1 in mitochondria"},
      {"measurement": "CerS1 and CerS6 mRNA in tumors", "setting": "CerS1-6 mRNA", "value": "induced CerS1 and CerS6 mRNA"},
      {"measurement": "IC50", "setting": "UM-SCC-22A cells", "value": 28, "unit": "µM"},
      {"measurement": "IC50", "setting": "UM-SCC-47 cells; UM-SCC-47 (HPV+) cells, 48 h, read-out: IC50 (concentration that inhibited growth by 50%)", "value": 8, "unit": "µM"},
      {"measurement": "reduction of cisplatin-mediated growth inhibition by knockdown of CerS1", "setting": "UM-SCC-47 cells; UM-SCC-47 cells, CerS1 shRNA versus Scr-shRNA, MTT", "value": "~4", "unit": "fold"},
      {"measurement": "resistance to cisplatin-mediated growth inhibition upon knockdown of E6 and E7", "setting": "UM-SCC-47 cells; UM-SCC-47 cells, HPV-E6/E7 siRNA versus Scr-siRNA, MTT", "value": "~8", "unit": "fold"},
      {"measurement": "sensitivity for drug-induced growth inhibition/cell death, UM-SCC-47 compared to UM-SCC-22A cells", "setting": "UM-SCC-47 cells; cells in culture", "value": "~3", "unit": "fold"},
      {"measurement": "tumor suppression of xenografts", "setting": "[2]; HPV(−) UM-SCC-22A xenografts, cisplatin 3.5 mg/kg for two weeks", "value": "no detectable tumor suppression"},
      {"measurement": "LC3B lipidation (marker of autophagy induction)", "setting": "LC3B", "value": "Increased LC3B lipidation"},
      {"measurement": "inhibition of growth of xenografts in response to cisplatin", "setting": "[3]", "value": "~75", "unit": "%"}
    ]},
    {"molecule": "Biotin-RRRRRRRR-LILFVIKLHQDVNDMRNSNQDQTQSEDRESKWY [scr-pept]", "values": [
      {"measurement": "ceramide-induced Drp1 recruitment to mitochondria", "setting": "Drp1 [4]", "value": "not"},
      {"measurement": "tumor growth", "setting": "[2]; UM-SCC-22A xenografts, 3.76 μg peptide, absence/presence of cisplatin 3.5 mg/kg every 3 days for 2 weeks", "value": "no effect"}
    ]},
    {"molecule": "dimerization domain deleted mutant of E2F5, GFP-tagged (E2F5^Δ84-177-GFP) (other, Ectopically expressed in cells; not shown: GFP tag) MAAAEPASSGQQAPAGQGQGQRPPPQPPQAQAPQPPPPPQLGGAGGGSSRHEKSLGLLTTKFVSLLQEAKDGVLDLKAAADTLICNCFNGDTLLAIQAPSGTQLEVPIPEMGQNGQKKYQINLKSHSGPIHVLLINKESSSSKPVVFPVPPPDDLTQPSSQSLTPVTPQKSSMATQNLPEQHVSERSQALQQTSATDISSAGSISGDIIDELMSSDVFPLLRLSPTPADDYNFNLDDNEGVCDLFDVQILNY", "values": [
      {"measurement": "binding result", "setting": "[5]", "value": "binds"}
    ]}
  ]
}
